The source of these data is US9493486B2, “Diazaspirocycloalkane and azaspirocycloalkane” (Hoffmann-La Roche Inc., priority 2012, dated 2016).

SMILES strings stand for the structures.

The experiment addresses ATX (human His-tagged) (Homo sapiens (Human), UniProt Q13822). Put plainly: Human ATX enzyme inhibition assay (fluorescence quenching, MR121 substrate). The class given is biochemical. Conditions: 30 nM ATX, 1 μM MR121 substrate, 30° C. An excerpt: Human ATX Enzyme Inhibition Assay
Assay working solutions were made as follows:
Regarding `O=C(c1ccc2[nH]nnc2c1)N1CC2(CCN(C(=O)[C@@H]3C[C@H]3c3cc(F)cc(F)c3)CC2)C1` (relative stereo) [Example 6.5, (2-(1H-benzo[d][1,2,3]triazole-5-carbonyl)-2,7-diazaspiro[3.5]nonan-7-yl)(trans-2-(3,5-difluorophenyl)cyclopropyl)methanone], the concentration for half-maximal inhibition (IC50) was found to be 3220 nM.
In the case of `O=C(OCc1cc(Cl)cc(Cl)c1)N1CCC2(CC1)CN(C(=O)c1ccc3[nH]nnc3c1)C2` [Example 1, 3,5-Dichlorobenzyl 2-(1H-benzo[d][1,2,3]triazole-5-carbonyl)-2,7-diazaspiro[3.5]nonane-7-carboxylate] it was 15 nM; in that of `O=C(OCc1ccccc1)N1CCC2(CC1)CN(C(=O)c1ccc3[nH]nnc3c1)C2` [Example 1.01, benzyl 2-(1H-benzo[d][1,2,3]triazole-5-carbonyl)-2,7-diazaspiro[3.5]nonane-7-carboxylate], 2400 nM; in that of `O=C(OCc1ccc(Cl)cc1)N1CCC2(CC1)CN(C(=O)c1ccc3[nH]nnc3c1)C2` [Example 1.02, 4-chlorobenzyl 2-(1H-benzo[d][1,2,3]triazole-5-carbonyl)-2,7-diazaspiro[3.5]nonane-7-carboxylate], 129 nM.
In the case of `O=C(OCc1cccc(Cl)c1)N1CCC2(CC1)CN(C(=O)c1ccc3[nH]nnc3c1)C2` [Example 1.03, 3-chlorobenzyl 2-(1H-benzo[d][1,2,3]triazole-5-carbonyl)-2,7-diazaspiro[3.5]nonane-7-carboxylate] it was 201 nM; in that of `O=C(CCc1cc(Cl)cc(Cl)c1)N1CCC2(CC1)CN(C(=O)c1ccc3[nH]nnc3c1)C2` [Example 1.04, 1-(2-(1H-benzo[d][1,2,3]triazole-5-carbonyl)-2,7-diazaspiro[3.5]nonan-7-yl)-3-(3,5-dichlorophenyl)propan-1-one], 115 nM; in that of `Nc1ccc(C(=O)N2CC3(CCN(C(=O)CCc4cc(Cl)cc(Cl)c4)CC3)C2)cc1O` [Example 1.05, 1-(2-(4-amino-3-hydroxybenzoyl)-2,7-diazaspiro[3.5]nonan-7-yl)-3-(3,5-dichlorophenyl)propan-1-one], 1040 nM.
With `Nc1ccc(C(=O)N2CC3(CCN(C(=O)OCc4cc(Cl)cc(Cl)c4)CC3)C2)cc1O` [Example 1.06, 3,5-dichlorobenzyl 2-(4-amino-3-hydroxybenzoyl)-2,7-diazaspiro[3.5]nonane-7-carboxylate] the figure was 107 nM; with `O=C(NC1CC2(C1)CN(C(=O)OCc1ccccc1)C2)c1ccc2[nH]nnc2c1` [Example 1.07, 6-[(1H-benzotriazole-5-carbonyl)-amino]-2-aza-spiro[3.3]heptane-2-carboxylic acid benzyl ester], 4140 nM; with `O=C(NC1CC2(C1)CN(C(=O)CCCc1ccccc1)C2)c1ccc2[nH]nnc2c1` [Example 1.08, N-(2-(4-phenylbutanoyl)-2-azaspiro[3.3]heptan-6-yl)-1H-benzo[d][1,2,3]triazole-5-carboxamide], 3350 nM.
`CS(=O)(=O)c1cc(Cl)cc(COC(=O)N2CCC3(CC2)CN(C(=O)c2ccc4[nH]nnc4c2)C3)c1` [Example 1.09, 3-chloro-5-(methylsulfonyl)benzyl 2-(1H-benzo[d][1,2,3]triazole-5-carbonyl)-2,7-diazaspiro[3.5]nonane-7-carboxylate] yielded a concentration for half-maximal inhibition (IC50) of 50.5 nM.
With `O=C(NC1CC2(C1)CN(C(=O)c1ccc3[nH]nnc3c1)C2)OCc1ccccc1` [Example 1.10, [2-(1H-benzotriazole-5-carbonyl)-2-aza-spiro[3.3]hept-6-yl]-carbamic acid benzyl ester] the figure was 3700 nM; with `O=C(NC1CC2(C1)CN(C(=O)CCc1cc(Cl)cc(Cl)c1)C2)c1ccc2[nH]nnc2c1` [Example 1.11, N-(2-(3-(3,5-dichlorophenyl)propanoyl)-2-azaspiro[3.3]heptan-6-yl)-1H-benzo[d][1,2,3]triazole-5-carboxamide], 155 nM; with `O=C(NC1CC2(C1)CN(C(=O)c1ccc3[nH]nnc3c1)C2)OCc1cc(Cl)cc(Cl)c1` [Example 1.12, [2-(1H-benzotriazole-5-carbonyl)-2-aza-spiro[3.3]hept-6-yl]-carbamic acid 3,5-dichloro-benzyl ester], 35 nM.
With `O=C(NC1CC2(C1)CN(C(=O)OCc1cc(Cl)cc(Cl)c1)C2)c1ccc2[nH]nnc2c1` [Example 1.13, 6-[(1H-benzotriazole-5-carbonyl)-amino]-2-aza-spiro[3.3]heptane-2-carboxylic acid 3,5-dichloro-benzyl ester] the figure was 5430 nM.
In the case of `O=C(OCc1cc(Cl)cc(Cl)c1)N1CCC2(C1)CN(C(=O)c1ccc3[nH]nnc3c1)C2` [Example 1.14, 3,5-dichlorobenzyl 2-(1H-benzo[d][1,2,3]triazole-5-carbonyl)-2,6-diazaspiro[3.4]octane-6-carboxylate] it was 73.7 nM; in that of `O=C(OCc1cc(Cl)cc(Cl)c1)N1CC2(CCN(C(=O)c3ccc4[nH]nnc4c3)CC2)C1` [Example 1.15, 3,5-dichlorobenzyl 7-(1H-benzo[d][1,2,3]triazole-5-carbonyl)-2,7-diazaspiro[3.5]nonane-2-carboxylate], 64.5 nM.
`CS(=O)(=O)c1cc(Cl)cc(COC(=O)N2CCC3(CC2)CN(C(=O)c2ccc(S(N)(=O)=O)cc2)C3)c1` [Example 1.17, 3-chloro-5-(methylsulfonyl)benzyl 2-(4-sulfamoylbenzoyl)-2,7-diazaspiro[3.5]nonane-7-carboxylate] gave an IC50 of 729 nM.
In turn, `CS(=O)(=O)c1cc(Cl)cc(COC(=O)N2CCC3(CC2)CN(C(=O)c2cccc(S(N)(=O)=O)c2)C3)c1` [Example 1.18, 3-chloro-5-(methylsulfonyl)benzyl 2-(3-sulfamoylbenzoyl)-2,7-diazaspiro[3.5]nonane-7-carboxylate] yielded a concentration for half-maximal inhibition (IC50) of 625 nM.
In the case of `O=C(OCc1cc(Cl)cc(Cl)c1)N1CCC2(CCN(C(=O)c3ccc4[nH]nnc4c3)CC2)C1` [Example 1.19, 3,5-dichlorobenzyl 8-(1H-benzo[d][1,2,3]triazole-5-carbonyl)-2,8-diazaspiro[4.5]decane-2-carboxylate] it was 39.5 nM.
In the case of `O=C(OCc1cc(F)cc(OC(F)(F)F)c1)N1CCC2(CCCN(C(=O)c3ccc4[nH]nnc4c3)C2)C1` (centres unmarked) [Example 1.20, 3-fluoro-5-(trifluoromethoxy)benzyl 7-(1H-benzo[d][1,2,3]triazole-5-carbonyl)-2,7-diazaspiro[4.5]decane-2-carboxylate] it was 120 nM; in that of `O=C(c1ccc2[nH]nnc2c1)N1CC2(CCN(S(=O)(=O)CCc3cccc(Cl)c3)CC2)C1` [Example 1.21, (1H-benzotriazol-5-yl)-{7-[2-(3-chloro-phenyl)-ethanesulfonyl]-2,7-diaza-spiro[3.5]non-2-yl}-methanone], 821 nM.
With `NS(=O)(=O)c1ccc(C(=O)N2CC3(CCN(C(=O)OCc4ccc(OC(F)(F)F)cc4)CC3)C2)cc1` [Example 1.22, 4-(trifluoromethoxy)benzyl 2-(4-sulfamoylbenzoyl)-2,7-diazaspiro[3.5]nonane-7-carboxylate] the figure was 15 nM.
In turn, `NS(=O)(=O)c1ccc(C(=O)N2CC3(CCN(C(=O)OCc4ccc(OC(F)(F)F)cc4F)CC3)C2)cc1` [Example 1.23, 2-fluoro-4-(trifluoromethoxy)benzyl 2-(4-sulfamoylbenzoyl)-2,7-diazaspiro[3.5]nonane-7-carboxylate] came in with an IC50 of 1 nM.
With `O=C(CCc1ccc(OC(F)(F)F)cc1)N1CCC2(CC1)CN(C(=O)c1ccc3[nH]nnc3c1)C2` [Example 1.24, 1-(2-(1H-benzo[d][1,2,3]triazole-5-carbonyl)-2,7-diazaspiro[3.5]nonan-7-yl)-3-(4-(trifluoromethoxy)phenyl)propan-1-one] the figure was 12 nM.
In the case of `CC(C)c1cc(C#N)ccc1OCC(=O)N1CCC2(CC1)CN(C(=O)C1CCc3[nH]nnc3C1)C2` (centres unmarked) [Example 1.25, 3-isopropyl-4-(2-oxo-2-(2-(4,5,6,7-tetrahydro-1H-benzo[d][1,2,3]triazole-5-carbonyl)-2,7-diazaspiro[3.5]nonan-7-yl)ethoxy)benzonitrile] it was 74 nM; in that of `CC(C)c1cc(Cl)ccc1OCC(=O)N1CCC2(CC1)CN(C(=O)c1ccc3[nH]nnc3c1)C2` [Example 1.26, 1-(2-(1H-benzo[d][1,2,3]triazole-5-carbonyl)-2,7-diazaspiro[3.5]nonan-7-yl)-2-(4-chloro-2-isopropylphenoxy)ethanone], 8 nM; in that of `CC(C)c1cc(Cl)ccc1OCC(=O)N1CCC2(CC1)CN(C(=O)C1CCc3[nH]nnc3C1)C2` (centres unmarked) [Example 1.27, 2-(4-chloro-2-isopropylphenoxy)-1-(2-(4,5,6,7-tetrahydro-1H-benzo[d][1,2,3]triazole-5-carbonyl)-2,7-diazaspiro[3.5]nonan-7-yl)ethanone], 41 nM.
In turn, `O=C(CCc1ccc(OC(F)(F)F)cc1)N1CCC2(CC1)CN(C(=O)C1CCc3[nH]nnc3C1)C2` (centres unmarked) [Example 1.28, 1-(2-(4,5,6,7-tetrahydro-1H-benzo[d][1,2,3]triazole-5-carbonyl)-2,7-diazaspiro[3.5]nonan-7-yl)-3-(4-(trifluoromethoxy)phenyl)propan-1-one] came in with an IC50 of 110 nM.
On to `O=C(OCc1cc(Cl)cc(Cl)c1)N1CCC2(C1)CN(C(=O)c1ccc3[nH]c(=O)oc3c1)C2` [Example 2, 3,5-Dichlorobenzyl 2-(2-oxo-2,3-dihydro-benzo[d]oxazole-6-carbonyl)-2,6-diazaspiro[3.4]octane-6-carboxylate], for which half-maximal inhibition (IC50) required 26 nM.
With `CS(=O)(=O)c1cc(Cl)cc(COC(=O)N2CCC3(CC2)CN(C(=O)c2ccc4[nH]c(=O)oc4c2)C3)c1` [Example 2.1, 3-chloro-5-(methylsulfonyl)benzyl 2-(2-oxo-2,3-dihydrobenzo[d]oxazole-6-carbonyl)-2,7-diazaspiro[3.5]nonane-7-carboxylate] the figure was 38 nM.
`O=C(OCc1cc(Cl)cc(Cl)c1)N1CC2(CCN(C(=O)c3ccc4[nH]c(=O)oc4c3)CC2)C1` [Example 2.2, 7-(2-oxo-2,3-dihydro-benzooxazole-6-carbonyl)-2,7-diaza-spiro[3.5]nonane-2-carboxylic acid 3,5-dichloro-benzyl ester] came in with an IC50 of 13.7 nM.
